This passage reports IC50 results from patent US20060264460A1 (Wyeth, priority 2005, published 2006).

One test deals with T1, human Cot/Tpl2 kinase (Homo sapiens, UniProt P41279).
T1 construct: human Cot/Tpl2 kinase construct encoding residues 30-398; 6His (N); made in house; host or cells: Sf9 insect cells, baculovirus system (BD Biosciences)
T1 sequence (P41279 30-398): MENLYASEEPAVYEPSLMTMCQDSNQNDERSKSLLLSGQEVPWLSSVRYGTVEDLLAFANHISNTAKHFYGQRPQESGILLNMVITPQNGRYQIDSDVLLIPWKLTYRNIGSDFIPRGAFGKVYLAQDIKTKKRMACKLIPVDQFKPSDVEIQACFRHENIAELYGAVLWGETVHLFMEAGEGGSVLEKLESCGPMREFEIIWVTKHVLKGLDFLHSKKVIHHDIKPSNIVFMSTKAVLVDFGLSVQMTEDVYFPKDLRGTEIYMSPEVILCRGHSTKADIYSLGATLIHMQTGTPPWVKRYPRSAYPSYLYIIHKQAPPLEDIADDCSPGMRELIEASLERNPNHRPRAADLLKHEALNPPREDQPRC
The test can be described thus: Tpl2/Cot kinase assay: GST-MEK1 phosphorylation detected by ELISA (DELFIA Eu). Particulars: 0.4 nM Tpl2, 35 nM GST-MEK1, 50 uM ATP, 1 h at 30° C. In kind it is biochemical. In a few lines:
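Substrate phosphorylation (GST-MEK1 Ser217/221) quantified by DELFIA europium ELISA, yielding IC50 values. Reaction: 1 h at 30° C, pH 7.2 MOPS buffer, 50 uM ATP, 35 nM GST-MEK1, 0.4 nM monomeric His-Tpl2 purified from Sf9 cells, compounds at 1% final DMSO; stopped with EDTA.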
Consider `Cc1ncn(C)c1CNc1ccc2ncc(C#N)c(Nc3ccc(F)c(Cl)c3)c2c1` [Example 133, 4-(3-chloro-4-fluorophenylamino)-6-((1,4-dimethyl-1H-imidazol-5-yl)methylamino)quinoline-3-carbonitrile], for which the IC50 (in general, the concentration that gives 50% inhibition) stood at 200 nM.
`N#Cc1cnc2ccc(NCc3cnc[nH]3)cc2c1Nc1cccc(Br)c1` [Example 169, 6-((1H-imidazol-5-yl)methylamino)-4-(3-bromophenylamino)quinoline-3-carbonitrile]: inhibition was half-maximal at 21 nM (IC50).
`C[S+]([O-])c1cc(NCc2cnc[nH]2)cc2c(Nc3ccc(F)c(Cl)c3)c(C#N)cnc12` (centres unmarked) [Example 284, 4-[(3-chloro-4-fluorophenyl)amino]-6-[(1H-imidazol-5-ylmethyl)amino]-8-(methylsulfinyl)quinoline-3-carbonitrile] returned an IC50 of 20 nM.
As to `Cc1c(CNc2cc(Cl)c3ncc(C#N)c(Nc4ccc(F)c(Cl)c4)c3c2)ncn1C` [Example 183, 8-chloro-4-(3-chloro-4-fluorophenylamino)-6-((1,5-dimethyl-1H-imidazol-4-yl)methylamino)quinoline-3-carbonitrile], it took 22 nM to reach half-maximal inhibition (IC50).
In turn, `N#Cc1cnc2ccc(NCc3cccc(C(F)(F)F)c3)cc2c1Nc1ccc(F)c(Cl)c1` [Example 149, 6-(3-(trifluoromethyl)benzylamino)-4-(3-chloro-4-fluorophenylamino)quinoline-3-carbonitrile] showed an IC50 of 1500 nM.
On the same count and under the same terms, for `N#Cc1cnc2c(Br)cc(NCc3cn(CCN4CCCCCC4)nn3)cc2c1Nc1ccc(F)c(Cl)c1` [Example 307, 6-{[1-(2-Azepan-1-yl-ethyl)-1H-[1,2,3]triazol-4-ylmethyl]-amino}-8-bromo-4-(3-chloro-4-fluoro-phenylamino)-quinoline-3-carbonitrile] the value was 61 nM.
`N#Cc1cnc2ccc(NCc3cnc[nH]3)cc2c1Nc1cccnc1` [Example 263, 6-[(1H-imidazol-5-ylmethyl)amino]-4-(pyridin-3-ylamino)quinoline-3-carbonitrile] yielded an IC50 of 1600 nM.
Compound `CN(C)Cc1ccc2cc(CNc3ccc4ncc(C#N)c(Nc5ccc(F)c(Cl)c5)c4c3)[nH]c2c1` [Example 154, 4-(3-chloro-4-fluorophenylamino)-6-((6-((dimethylamino)methyl)-1H-indol-2-yl)methylamino)quinoline-3-carbonitrile] registered a 50% inhibitory concentration (IC50) of 2500 nM.
Compound `N#Cc1cnc2ccc(NCc3ccco3)cc2c1Nc1ccc(F)c(Cl)c1` [Example 3, 4-(3-Chloro-4-fluoro-phenylamino)-6-[(furan-2-ylmethyl)-amino]-quinoline-3-carbonitrile] came in with a concentration for half-maximal inhibition (IC50) of 240 nM.
As for `N#Cc1cnc2c(CC(O)CO)cc(NCc3cnc[nH]3)cc2c1Nc1ccc(F)c(Cl)c1` (centres unmarked) [Example 314, 4-[(3-chloro-4-fluorophenyl)amino]-8-(2,3-dihydroxypropyl)-6-[(1H-imidazol-5-ylmethyl)amino]quinoline-3-carbonitrile], the half-inhibitory concentration (IC50) worked out at 910 nM. This IC50 lies about 3.8-fold higher than the previous one.
The compound `CCOCCOc1ccc(Br)c(CNc2ccc3ncc(C#N)c(Nc4ccc(F)c(Cl)c4)c3c2)c1` [Example 58, 6-[2-Bromo-5-(2-ethoxy-ethoxy)-benzylamino]-4-(3-chloro-4-fluoro-phenylamino)-quinoline-3-carbonitrile] displayed an IC50 of 1100 nM.

Still in this test, the particulars now being: Table 2; Tpl2/Cot kinase, GST-MEK1 substrate, 50 uM ATP.
On to `N#Cc1cnc2c(Br)cc(NCc3cn(-c4ccncc4)cn3)cc2c1Nc1ccc(F)c(Cl)c1` [Example 554], for which inhibition was half-maximal at 23 nM (IC50).
In turn, `N#Cc1cnc2ccc(NCc3ccccc3)cc2c1NC1CCCC1` [Example 415] had an IC50 of 21300 nM.
In turn, `CC(O)c1cc(NCc2cnc[nH]2)cc2c(Nc3ccc(F)c(Cl)c3)c(C#N)cnc12` (centres unmarked) [Example 463] registered a concentration for half-maximal inhibition (IC50) of 260 nM.
`N#Cc1cnc2ccc(NCc3cnc[nH]3)cc2c1NC1CCCCCC1` [Example 400]: the half-maximal inhibitory concentration (IC50) is 490 nM. This IC50 is about 1.9-fold higher than that of the compound before.
On to `CN(C)CCn1cc(CNc2cc(Br)c3ncc(C#N)c(Nc4ccc(F)c(Cl)c4)c3c2)nn1` [Example 481], for which half-maximal inhibition (IC50) required 24 nM.
`N#Cc1cnc2c(Cl)cc(NCC(=O)NCc3ccncc3)cc2c1Nc1ccc(F)c(Cl)c1` [Example 600] came in with an IC50 of 48 nM. Against the preceding compound, the IC50 is about 2-fold higher.
The compound `COCCCc1nc[nH]c1CNc1cc(Br)c2ncc(C#N)c(Nc3ccc(F)c(Cl)c3)c2c1` [Example 507] registered a concentration for half-maximal inhibition (IC50) of 62.1 nM. The IC50 values of the last two compounds are within 1.5-fold of each other.
Turning to `N#Cc1cnc2c(Br)cc(NCc3cn(C45CC6CC(CC(C6)C4)C5)nn3)cc2c1Nc1ccc(F)c(Cl)c1` [Example 479], the IC50 came to 1700 nM.
In turn, `CN1CCC(n2cc(CN(C)c3cc(Br)c4ncc(C#N)c(Nc5ccc(F)c(Cl)c5)c4c3)nn2)CC1` [Example 506] yielded a concentration for half-maximal inhibition (IC50) of 22 nM.
As to `N#Cc1cnc2c(Br)cc(NCc3cn(CCC4CCNCC4)nn3)cc2c1Nc1ccc(F)c(Cl)c1` [Example 517], the IC50 came to 90 nM.

Still in this test, the particulars now being: Tpl2/Cot kinase, GST-MEK1 substrate, 50 uM ATP.
The compound `N#Cc1cnc2c(Cl)cc(NCc3cn(Cc4ccc(C(F)(F)F)cc4)nn3)cc2c1Nc1ccc(F)c(Cl)c1` [Example 756] had a half-inhibitory concentration (IC50) of over 3000 nM.
The same measure, in the same setting: for `CN(C)C(=O)Cn1cc(CNc2cc(Br)c3ncc(C#N)c(Nc4ccc(F)c(Cl)c4)c3c2)nn1` [Example 834] the value was 14 nM; for `CS(=O)(=O)NCCNc1cc(Cl)c2ncc(C#N)c(Nc3ccc(F)c(Cl)c3)c2c1` [Example 853], 880 nM.
`CNCCn1cc(CNc2cc(Cl)c3ncc(C#N)c(Nc4ccc(F)c(Cl)c4)c3c2)nn1` [Example 685]: the concentration for half-maximal inhibition (IC50) came out at 29 nM. Against the preceding compound, the IC50 is about 30-fold lower.
Still for that read-out and setting: the value for `N#Cc1cnc2c(Cl)cc(NCc3cn(COCc4ccccc4)nn3)cc2c1Nc1ccc(F)c(Cl)c1` [Example 807] was over 3000 nM; that for `CC(C)(C)OC(=O)N1CCC[C@@H]1Cn1cc(CNc2cc(Cl)c3ncc(C#N)c(Nc4ccc(F)c(Cl)c4)c3c2)nn1` [Example 887] was 160 nM.
On the same count and under the same terms, the value for `CN(C)C(=O)CCn1cc(CNc2cc(Cl)c3ncc(C#N)c(Nc4ccc(F)c(Cl)c4)c3c2)nn1` [Example 789] was 10 nM; that for `N#Cc1cnc2c(Br)cc(NCc3cn(CCCN4CCCNCC4)nn3)cc2c1Nc1ccc(F)c(Cl)c1` [Example 766] was 43 nM; that for `COCCn1cc(CNc2cc(Br)c3ncc(C#N)c(Nc4ccc(F)c(Cl)c4)c3c2)nn1` [Example 698] was 18 nM.
Still for that read-out and setting: the value for `N#Cc1cnc2c(Br)cc(NCc3cn(CCCN4CCNCC4)nn3)cc2c1Nc1ccc(F)c(Cl)c1` [Example 768] was 110 nM; that for `N#Cc1cnc2c(Br)cc(NCc3cn(-c4ccncc4)cn3)cc2c1Nc1ccc(F)c(Cl)c1` [Example 725] was 23 nM; that for `N#Cc1cnc2c(Cl)cc(NCCNC(=O)c3ccccn3)cc2c1Nc1ccc(F)c(Cl)c1` [Example 859] was over 3000 nM.
`CN(C)CCC(c1cccnc1)n1cc(CNc2cc(Br)c3ncc(C#N)c(Nc4ccc(F)c(Cl)c4)c3c2)nn1` (centres unmarked) [Example 757] displayed an IC50 of 6.7 nM.
The compound `COCn1cc(CNc2cc(Br)c3ncc(C#N)c(Nc4ccc(F)c(Cl)c4)c3c2)nn1` [Example 917] came in with an IC50 of 76 nM. This IC50 is about 11-fold higher than that of the compound before.
As for `N#Cc1cnc2c(Cl)cc(NCC3CC3C(=O)O)cc2c1Nc1ccc(F)c(Cl)c1` (centres unmarked) [Example 886], the 50% inhibitory concentration (IC50) was 220 nM.
On the same count and under the same terms, the value for `N#Cc1cnc2c(Cl)cc(NCc3cn(CC4CCCN4)nn3)cc2c1Nc1ccc(F)c(Cl)c1` (centres unmarked) [Example 721] was 9.1 nM; that for `N#Cc1cnc2c(Br)cc(NCc3cn(C4CN5CCC4CC5)nn3)cc2c1Nc1ccc(F)c(Cl)c1` (centres unmarked) [Example 838] was 10 nM; that for `CS(=O)(=O)NCCCn1cc(CNc2cc(Cl)c3ncc(C#N)c(Nc4ccc(F)c(Cl)c4)c3c2)nn1` [Example 905] was 2.8 nM.
On to `N#Cc1cnc2c(Cl)cc(NCc3cn(CCCN4CCNCC4)nn3)cc2c1Nc1ccc(F)c(Cl)c1` [Example 769], for which the IC50 is 160 nM.

The same test, now with this note: Tpl2/Cot kinase, GST-MEK1 substrate, 50 uM ATP, 1 h at 30° C.; Table 2.
Turning to `N#Cc1cnc2c(Cl)cc(NCc3cc(Br)co3)cc2c1Nc1ccc(F)c(Cl)c1` [Example 1024], the IC50 is over 3000 nM.
On to `N#Cc1cnc2c(Cl)cc(NCc3cn(C4CCN(C(=O)OCCF)CC4)nn3)cc2c1Nc1ccc(F)c(Cl)c1` [Example 982], for which the 50% inhibitory concentration (IC50) was found to be 31 nM.
As for `N#CCN1CCC(n2cc(CNc3cc(Cl)c4ncc(C#N)c(Nc5ccc(F)c(Cl)c5)c4c3)nn2)CC1` [Example 998], half-maximal inhibition (IC50) required 22 nM.
For the compound `N#Cc1cnc2c(Cl)cc(NCc3cc(Br)cs3)cc2c1Nc1ccc(F)c(Cl)c1` [Example 1004], the IC50 was over 3000 nM.
On to `N#Cc1cnc2c(Cl)cc(NCc3cn(CCN4CCCCCC4)nn3)cc2c1NC1CCCC2(CCCC2)C1` (centres unmarked) [Example 976], for which the 50% inhibitory concentration (IC50) is over 3000 nM.
`N#Cc1cnc2ccc(NCc3cn(C4CCNCC4)nn3)cc2c1NC1CCCCC1` [Example 977] showed a half-inhibitory concentration (IC50) of 130 nM.
The same measure, in the same setting: the value for `N#Cc1cnc2c(Cl)cc(NCc3cn(CCN4CCCCCC4)nn3)cc2c1NC1CCCC1` [Example 945] was 630 nM; that for `CN1CCCC1CCn1cc(CNc2cc(Cl)c3ncc(C#N)c(NC4CCC5(CCCCC5)CC4)c3c2)nn1` (centres unmarked) [Example 971] was over 3000 nM.
Turning to `N#Cc1cnc2c(Cl)cc(NCc3cn(C4CCN(CC5CC5)CC4)nn3)cc2c1Nc1ccc(F)c(Cl)c1` [Example 1027], the IC50 was determined as 7.9 nM. This lies in the single-digit nanomolar range.
`CN1C(C)(C)CC(n2cc(CNc3cc(Cl)c4ncc(C#N)c(Nc5ccc(F)c(Cl)c5)c4c3)nn2)CC1(C)C` [Example 1043] yielded a 50% inhibitory concentration (IC50) of 52 nM.
The compound `CC(C)(C)OC(=O)N1CCC(n2cc(COc3cc(Cl)c4ncc(C#N)c(Nc5ccc(F)c(Cl)c5)c4c3)nn2)CC1` [Example 941] had an IC50 of 520 nM.
Compound `CCN1CCN(CCn2cc(CNc3cc(Cl)c4ncc(C#N)c(Nc5ccc(F)c(Cl)c5)c4c3)nn2)CC1` [Example 964] yielded an IC50 of 260 nM.
Compound `N#Cc1cnc2c(Cl)cc(NCc3cn(C4CCCN(CC(F)(F)C(F)F)CC4)nn3)cc2c1Nc1ccc(F)c(Cl)c1` (centres unmarked) [Example 1013] came in with a concentration for half-maximal inhibition (IC50) of 430 nM.
